Assay results taken from paper PMC5788404 (Journal of Medicinal Chemistry, 2017).
Entries after “also recorded” stand apart in the source; their conditions may differ. Values belong to the compound of their own block, whether it stands above or below them.

Key:
[1] = molecular target: T1, VBC protein (VHL:ElonginB:ElonginC protein complex) (Homo sapiens, UniProt P40337); type: binding; conditions: based on FP results, GE = ΔpKd/ΔHA (heavy atoms)
T1 construct: made in house

HeLa cells [2] = assay: Intracellular drug concentration (accumulation in HeLa cells); type: in vitro ADME, Human; conditions: HeLa cells, 50 μM, 2 h
[3] = molecular target: T2, VBC complex (VHL:ElonginB:ElonginC) (Homo sapiens, UniProt P40337); type: binding; conditions: for LE: LE = −RT ln Kd/NHA; for LE / LLE: on the basis of ITC results; for LLE: LLE = pKd–Log D
T2 construct: made in house
T2 sequence (Q15369 17-112): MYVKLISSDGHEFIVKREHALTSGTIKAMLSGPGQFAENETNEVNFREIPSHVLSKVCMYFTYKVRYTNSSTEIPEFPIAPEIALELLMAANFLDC
T2 sequence (P40337 54-213): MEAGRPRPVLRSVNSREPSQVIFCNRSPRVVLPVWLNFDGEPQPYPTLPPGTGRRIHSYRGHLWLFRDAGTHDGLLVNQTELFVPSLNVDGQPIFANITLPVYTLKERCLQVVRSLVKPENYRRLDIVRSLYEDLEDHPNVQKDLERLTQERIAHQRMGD
T2 sequence (Q15370 1-104, further chain): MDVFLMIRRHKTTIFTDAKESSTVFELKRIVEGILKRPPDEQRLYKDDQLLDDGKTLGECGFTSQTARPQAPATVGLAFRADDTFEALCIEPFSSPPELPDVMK

immobilized VBC protein = molecular target: T3, immobilized VBC protein (Homo sapiens, UniProt P40337); assay: biochemical; type: binding; conditions: for Dissociative t1/2: t1/2 = ln2/koff; for kon: SPR
T3 construct: made in house
T3 sequence (Q15369 17-112): as the sequence (Q15369 17-112) above
T3 sequence (Q15370 1-104, further chain): as the sequence (Q15370 1-104, further chain) above
T3 sequence (P40337 54-213): as the sequence (P40337 54-213) above

[4] = Intracellular drug concentration (accumulation in HeLa cells); type: in vitro ADME, Human; conditions: human; HeLa cell lysate, equilibrium dialysis; read-out: Fraction unbound (fu)
[5] = Intrinsic clearance (Cli) in liver microsomes; type: in vitro ADME; conditions: female CD1 mouse liver microsomes, 0.5 μM compound
HeLa cells [6] = assay: Proliferation assay; type: cell-based, Human; conditions: 150 μM, relative to DMSO vehicle
HeLa cells [7] = assay: Colony formation assay; type: cell-based, Human; conditions: 150 μM
[8] = Parallel Artificial Membrane Permeability Assay (PAMPA); type: in vitro ADME; conditions: pH 7.4, as printed in text and footnote
HIF-1α = assay: cells; conditions: Homo sapiens, HeLa, 2 h, read-out: HIF-1α Stabilization (Protein % levels), HeLa cells, 50 μM inhibitor, 2 h, Western blot, normalized to level observed with 1

T1 sequence (P40337 54-213): as above
T1 sequence (Q15369 17-112, further chain): as the sequence (Q15369 17-112) above
T1 sequence (Q15370 1-104, further chain): as the sequence (Q15370 1-104, further chain) above

GE (group efficiency) [1]: −0.41
Compound: Cc1ncsc1-c1ccc(CNC(=O)[C@@H]2C[C@@H](O)CN2C(=O)[C@@H](NC(=O)OC(C)(C)C)C(C)(C)C)cc1 [Inhibitor 2]

Compound: CC(C)NCC(O)COc1cccc2ccccc12 (centres unmarked) [propanolol, reference compound]
Compound associated with cells (HeLa cells [2]): 2679.0 µM

GE (group efficiency) [1]: −0.02
LE [3]: 0.26 kcal × mol^-1 × NHA^-1
LLE [3]: 5.68 kcal × mol^-1 × NHA^-1
Compound: Cc1ncsc1-c1ccc(CNC(=O)[C@@H]2C[C@@H](O)CN2C(=O)[C@@H](NC(=O)C2CC2)C(C)(C)C)cc1 [Inhibitor 6, (2S,4R)-1-((S)-2-(Cyclopropanecarboxamido)-3,3-dimethylbutanoyl)-4-hydroxy-N-(4-(4-methylthiazol-5-yl)benzyl)pyrrolidine-2-carboxamide]

GE (group efficiency) [1]: −0.04
Compound: Cc1ncsc1-c1ccc(CNC(=O)[C@@H]2C[C@@H](O)CN2C(=O)[C@@H](NC(=O)C(Cl)(Cl)Cl)C(C)(C)C)cc1 [Inhibitor 8, (2S,4R)-1-((S)-3,3-Dimethyl-2-(2,2,2-trichloroacetamido)butanoyl)-4-hydroxy-N-(4-(4-methylthiazol-5-yl)benzyl)pyrrolidine-2-carboxamide]

GE (group efficiency) [1]: −0.24
Compound: Cc1ncsc1-c1ccc(CNC(=O)[C@@H]2C[C@@H](O)CN2C(=O)[C@@H](NC(=O)C(C)(C)F)C(C)(C)C)cc1 [Inhibitor 9, (2S,4R)-1-((S)-2-(2-Fluoro-2-methylpropanamido)-3,3-dimethylbutanoyl)-4-hydroxy-N-(4-(4-methylthiazol-5-yl)benzyl)pyrrolidine-2-carboxamide]

GE (group efficiency) [1]: −0.08
Compound: Cc1ncsc1-c1ccc(CNC(=O)[C@@H]2C[C@@H](O)CN2C(=O)[C@@H](NC(=O)C(F)(F)F)C(C)(C)C)cc1 [Inhibitor 7, (2S,4R)-1-((S)-3,3-Dimethyl-2-(2,2,2-trifluoroacetamido)butanoyl)-4-hydroxy-N-(4-(4-methylthiazol-5-yl)benzyl)pyrrolidine-2-carboxamide]

Compound: Cc1ncsc1-c1ccc(CNC(=O)[C@@H]2C[C@@H](O)CN2C(=O)[C@@H](NC(=O)CO)C(C)(C)C)cc1 [Inhibitor 3, (2S,4R)-4-Hydroxy-1-((S)-2-(2-hydroxyacetamido)-3,3-dimethylbutanoyl)-N-(4-(4-methylthiazol-5-yl)benzyl)pyrrolidine-2-carboxamide]
GE (group efficiency) [1]: −0.11
LE [3]: 0.27 kcal × mol^-1 × NHA^-1
LLE [3]: 6.28 kcal × mol^-1 × NHA^-1

Dissociative t1/2 (immobilized VBC protein; 10°C (first value of cell)): 4.95 ± 0.01 s
Dissociative t1/2 (immobilized VBC protein; 20°C (second value of cell)): 2.71 ± 0.01 s
kon (immobilized VBC protein; 10°C): 517000 M⁻¹ s⁻¹
kon (immobilized VBC protein; 20°C): 1.1e+06 M⁻¹ s⁻¹
GE (group efficiency) [1]: –0.07
LE [3]: 0.25 kcal × mol^-1 × NHA^-1
LLE [3]: 5.38 kcal × mol^-1 × NHA^-1
Compound associated with cells (HeLa cells [2]): 204.0 µM
Final free compound concentration in cells (HeLa cells [2]): 0.093 µM
fraction unbound [4]: 0.0008
Microsomal stability (intrinsic clearance) [5]: 3.0 mL/min/g
Compound: Cc1ncsc1-c1ccc(CNC(=O)[C@@H]2C[C@@H](O)CN2C(=O)[C@@H](NC(=O)C2CCC2)C(C)(C)C)cc1 [Inhibitor 18, (2S,4R)-1-((S)-2-(Cyclobutanecarboxamido)-3,3-dimethylbutanoyl)-4-hydroxy-N-(4-(4-methylthiazol-5-yl)benzyl)pyrrolidine-2-carboxamide]

Compound: Cc1ncsc1-c1ccc(CNC(=O)[C@@H]2C[C@H](O)CN2C(=O)[C@@H](NC(=O)C2(F)CC2)C(C)(C)C)cc1 [cis-10, (2S,4S)-1-((S)-2-(1-Fluorocyclopropanecarboxamido)-3,3-dimethylbutanoyl)-4-hydroxy-N-(4-(4-methylthiazol-5-yl)benzyl)pyrrolidine-2-carboxamide]
toxicity in cell-proliferation assay (HeLa cells [6]): a degree of cytotoxicity
binding to VHL ([3]; ITC and FP binding curves, Figure 2): no longer binds to VHL
toxicity in colony formation assay (HeLa cells [7]): a degree of cytotoxicity

Compound: Cc1ncsc1-c1ccc(CNC(=O)[C@@H]2C[C@@H](O)CN2C(=O)[C@@H](NC(=O)C2(C#N)CC2)C(C)(C)C)cc1 [Inhibitor 15, (2S,4R)-1-((S)-2-(1-Cyanocyclopropanecarboxamido)-3,3-dimethylbutanoyl)-4-hydroxy-N-(4-(4-methylthiazol-5-yl)benzyl)pyrrolidine-2-carboxamide]
Compound associated with cells (HeLa cells [2]): 150.0 µM
fraction unbound [4]: 0.0007
Papp at 5 h, 10 μM [8]: 19.4 nm/s
toxicity in colony formation assay (HeLa cells [7]): no toxicity
Microsomal stability (intrinsic clearance) [5]: 3.1 mL/min/g

GE (group efficiency) [1]: −0.12
Compound: Cc1ncsc1-c1ccc(CNC(=O)[C@@H]2C[C@@H](O)CN2C(=O)[C@@H](NC(=O)CC(C)(C)C)C(C)(C)C)cc1 [Inhibitor 5, (2S,4R)-1-((S)-2-(3,3-Dimethylbutanamido)-3,3-dimethylbutanoyl)-4-hydroxy-N-(4-(4-methylthiazol-5-yl)benzyl)pyrrolidine-2-carboxamide]

Compound: COCCc1ccc(OCC(O)CNC(C)C)cc1 (centres unmarked) [Metoprolol, reference compound]
fraction unbound [4]: 0.005

Dissociative t1/2 (immobilized VBC protein; 10°C (first value of cell)): 10.04 ± 0.01 s
Dissociative t1/2 (immobilized VBC protein; 20°C (second value of cell)): 4.101 ± 0.007 s
kon (immobilized VBC protein; 10°C): 600000 M⁻¹ s⁻¹
kon (immobilized VBC protein; 20°C): 820000 M⁻¹ s⁻¹
GE (group efficiency) [1]: –0.01
LE [3]: 0.25 kcal × mol^-1 × NHA^-1
LLE [3]: 5.63 kcal × mol^-1 × NHA^-1
Compound associated with cells (HeLa cells [2]): 100.0 µM
Final free compound concentration in cells (HeLa cells [2]): 0.046 µM
fraction unbound [4]: 0.0008
Papp at 5 h, 10 μM [8]: 15 nm/s
Microsomal stability (intrinsic clearance) [5]: 2.5 mL/min/g
Compound: CC(=O)C1(C(=O)N[C@H](C(=O)N2C[C@H](O)C[C@H]2C(=O)NCc2ccc(-c3scnc3C)cc2)C(C)(C)C)CC1 [Inhibitor 16, (2S,4R)-1-((S)-2-(1-Acetylcyclopropanecarboxamido)-3,3-dimethylbutanoyl)-4-hydroxy-N-(4-(4-methylthiazol-5-yl)benzyl)pyrrolidine-2-carboxamide]

Compound: CC(=O)N[C@H](C(=O)N1C[C@H](O)C[C@H]1C(=O)NCc1ccc(-c2scnc2C)cc1)C(C)(C)C [Inhibitor 1]
Emax at 50 µM (HIF-1α): 100 ± 7%
Compound associated with cells (HeLa cells [2]): 463.8 µM
fraction unbound [4]: 0.0016
Microsomal stability (intrinsic clearance) [5]: 0.7 mL/min/g

GE (group efficiency) [1]: –0.19
Compound: Cc1ncsc1-c1ccc(CNC(=O)[C@@H]2C[C@@H](O)CN2C(=O)[C@@H](NC(=O)C2(F)CC2)C(C)O)cc1 (stereo in doubt) [Inhibitor 14, (2S,4R)-1-((2S,3S)-2-(1-Fluorocyclopropanecarboxamido)-3-hydroxybutanoyl)-4-hydroxy-N-(4-(4-methylthiazol-5-yl)benzyl)pyrrolidine-2-carboxamide]

GE (group efficiency) [1]: –0.05
LE [3]: 0.24 kcal × mol^-1 × NHA^-1
LLE [3]: 6.28 kcal × mol^-1 × NHA^-1
Compound: CC(=O)NC1(C(=O)N[C@H](C(=O)N2C[C@H](O)C[C@H]2C(=O)NCc2ccc(-c3scnc3C)cc2)C(C)(C)C)CC1 [Inhibitor 17, (2S,4R)-1-((S)-2-(1-Acetamidocyclopropanecarboxamido)-3,3-dimethylbutanoyl)-4-hydroxy-N-(4-(4-methylthiazol-5-yl)benzyl)pyrrolidine-2-carboxamide]

Compound: Cc1ncsc1-c1ccc(CNC(=O)[C@@H]2C[C@@H](O)CN2C(=O)[C@@H](NC(=O)C2(F)CC2)C(C)(C)C)cc1 [Inhibitor 10, (2S,4R)-1-((S)-2-(1-Fluorocyclopropanecarboxamido)-3,3-dimethylbutanoyl)-4-hydroxy-N-(4-(4-methylthiazol-5-yl)benzyl)pyrrolidine-2-carboxamide]
toxicity in cell-proliferation assay (HeLa cells [6]): notably decreased cell proliferation; also recorded: toxicity
Dissociative t1/2 (immobilized VBC protein; 10°C (first value of cell)): 11.94 ± 0.08 s
Dissociative t1/2 (immobilized VBC protein; 20°C (second value of cell)): 7.073 ± 0.007 s
Compound associated with cells (HeLa cells [2]): 383.6 µM
Final free compound concentration in cells (HeLa cells [2]): 0.071 µM
fraction unbound [4]: 0.0002
Papp at 5 h, 10 μM [8]: 27.1 nm/s
toxicity in colony formation assay (HeLa cells [7]): a degree of cytotoxicity; also recorded: toxicity
Microsomal stability (intrinsic clearance) [5]: 2.9 mL/min/g

GE (group efficiency) [1]: −0.48
Compound: Cc1ncsc1-c1ccc(CNC(=O)[C@@H]2C[C@@H](O)CN2C(=O)[C@@H](N2CCCC2=O)C(C)(C)C)cc1 [Inhibitor 12, (2S,4R)-1-((S)-3,3-Dimethyl-2-(2-oxopyrrolidin-1-yl)butanoyl)-4-hydroxy-N-(4-(4-methylthiazol-5-yl)benzyl)pyrrolidine-2-carboxamide]
